Target: T1, Dopamine beta hydroxylase (Homo sapiens, UniProt P09172)
T1 construct: 125 μl of plasma; tissue Instituto Português do Sangue Transplantação; host or cells: human plasma from healthy donors
T1 sequence (P09172 40-617 limits assumed): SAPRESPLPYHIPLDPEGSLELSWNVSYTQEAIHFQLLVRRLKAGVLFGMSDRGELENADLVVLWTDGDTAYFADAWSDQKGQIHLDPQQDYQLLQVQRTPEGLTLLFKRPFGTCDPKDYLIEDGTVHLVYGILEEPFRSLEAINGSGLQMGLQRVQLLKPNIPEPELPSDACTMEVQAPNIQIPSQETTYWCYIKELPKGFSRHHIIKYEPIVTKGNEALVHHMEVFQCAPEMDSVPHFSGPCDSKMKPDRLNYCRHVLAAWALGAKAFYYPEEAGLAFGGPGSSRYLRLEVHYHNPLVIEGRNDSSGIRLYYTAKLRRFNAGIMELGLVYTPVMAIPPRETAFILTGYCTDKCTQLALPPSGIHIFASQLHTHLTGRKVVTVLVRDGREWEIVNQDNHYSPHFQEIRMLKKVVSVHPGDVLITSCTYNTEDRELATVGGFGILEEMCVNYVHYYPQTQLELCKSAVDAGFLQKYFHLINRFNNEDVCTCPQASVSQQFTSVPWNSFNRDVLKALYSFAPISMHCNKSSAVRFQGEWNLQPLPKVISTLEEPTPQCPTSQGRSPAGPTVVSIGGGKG
Test: Dopamine beta hydroxylase activity in human plasma
Assay type: biochemical
Conditions: for Plasma (0.1 μM), activity in % of control: inhibitor 0.1 μM; for Plasma (1 μM), activity in % of control: inhibitor 1 μM
Procedure, shortened: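 Octopamine production from tyramine over 45 min at 37° C, measured photometrically at 330 nm after SCX extraction and periodate oxidation against an octopamine standard curve, indicates plasma DβH activity. Compounds tested at final 10, 100 and 1000 nM in human plasma, pH 5.0 cofactor buffer, 10 min preincubation; results as % of control.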

SMILES | Plasma (0.1 μM), activity in % of control | Plasma (1 μM), activity in % of control
O=C(Cc1[nH]c(=S)n2c1C[C@H](c1c(F)c(F)cc(F)c1F)C2)N1CCC(O)CC1 [Example 82, (R)-1-(4-hydroxypiperidin-1-yl)-2-(6-(2,3,5,6-tetrafluorophenyl)-3-thioxo-2,5,6,7-tetrahydro-3H-pyrrolo[1,2-c]imidazol-1-yl)ethan-1-one] | 69.2 % of control | 16.6 % of control
O=C(Cc1[nH]c(=S)n2c1C[C@H](c1c(F)c(F)cc(F)c1F)C2)N1CCC(CO)CC1 [Example 83, (R)-1-(4-(hydroxymethyl)piperidin-1-yl)-2-(6-(2,3,5,6-tetrafluorophenyl)-3-thioxo-2,5,6,7-tetrahydro-3H-pyrrolo[1,2-c]imidazol-1-yl)ethan-1-one] | 78.8 % of control | 15.9 % of control
O=C(Cc1[nH]c(=S)n2c1C[C@@H](c1c(F)ccc(Cl)c1F)C2)NC1CCCC1 [Example 84, (S)-2-(6-(3-chloro-2,6-difluorophenyl)-3-thioxo-2,5,6,7-tetrahydro-3H-pyrrolo[1,2-c]imidazol-1-yl)-N-cyclopentylacetamide] | 24.5 % of control | 1.0 % of control
CN(C)C(=O)CN1CCN(C(=O)Cc2[nH]c(=S)n3c2C[C@H](c2c(F)c(F)cc(F)c2F)C3)CC1 [Example 85, (R)—N,N-dimethyl-2-(4-(2-(6-(2,3,5,6-tetrafluorophenyl)-3-thioxo-2,5,6,7-tetrahydro-3H-pyrrolo[1,2-c]imidazol-1-yl)acetyl)piperazin-1-yl)acetamide] | 59.1 % of control | 12.2 % of control
NC(=O)C1CCN(C(=O)Cc2[nH]c(=S)n3c2C[C@H](c2c(F)c(F)cc(F)c2F)C3)CC1 [Example 86, (R)-1-(2-(6-(2,3,5,6-tetrafluorophenyl)-3-thioxo-2,5,6,7-tetrahydro-3H-pyrrolo[1,2-c]imidazol-1-yl)acetyl)piperidine-4-carboxamide] | 70.9 % of control | 14.7 % of control
O=C(Cc1[nH]c(=S)n2c1C[C@H](c1c(F)c(F)cc(F)c1F)C2)N1CCC2(CC1)OCCO2 [Example 87, (R)-1-(1,4-dioxa-8-azaspiro[4.5]decan-8-yl)-2-(6-(2,3,5,6-tetrafluorophenyl)-3-thioxo-2,5,6,7-tetrahydro-3H-pyrrolo[1,2-c]imidazol-1-yl)ethan-1-one] | 62.8 % of control | 13.8 % of control
CC(C)NC(=O)Cc1[nH]c(=S)n2c1C[C@@H](c1c(F)ccc(Cl)c1F)C2 [Example 88, (S)-2-(6-(3-chloro-2,6-difluorophenyl)-3-thioxo-2,5,6,7-tetrahydro-3H-pyrrolo[1,2-c]imidazol-1-yl)-N-isopropylacetamide] | 44.1 % of control | 6.1 % of control
O=C(Cc1[nH]c(=S)n2c1C[C@@H](c1c(F)ccc(Cl)c1F)C2)NCCCN1CCOCC1 [Example 89, (S)-2-(6-(3-chloro-2,6-difluorophenyl)-3-thioxo-2,5,6,7-tetrahydro-3H-pyrrolo[1,2-c]imidazol-1-yl)-N-(3-morpholinopropyl)acetamide] | 4.3 % of control | 0 % of control
O=C(Cc1[nH]c(=S)n2c1C[C@@H](c1c(F)ccc(Br)c1F)C2)N[C@@H]1CCOC1 [Example 90, 2-((S)-6-(3-bromo-2,6-difluorophenyl)-3-thioxo-2,5,6,7-tetrahydro-3H-pyrrolo[1,2-c]imidazol-1-yl)-N—((R)-tetrahydrofuran-3-yl)acetamide] | 9.9 % of control | 0.4 % of control

Reference: patent publication US11434242B2, “Dopamine-b-hydroxylase inhibitors” (BIAL-PORTELA & Cª, S.A., priority 2017, dated 2022)
